According to ChEMBL document CHEMBL1201862, “PubChem BioAssay data set” (2004):
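Five compound concentrations were applied to cells in 96-well plates for 48 hours; endpoints were derived by simple linear interpolation of the resulting dose-response curve. Here, GI50 denotes the concentration required for 50% inhibition of growth.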 Activity calls are given as the source filed them. Cut-off read from the data, not from the text of the source: active = GI50 up to about 1.1 µM and inactive = higher.

Assays:
Assay in all cases: NCI-60 cell line screen, 48 h
MOLT-4 = tested on: MOLT-4
BT-549 = tested on: BT-549
K562 = tested on: K562
SN12C = tested on: SN12C
A498 = tested on: A498
NCI-H460 = tested on: NCI-H460
SK-OV-3 = tested on: SK-OV-3
SNB-19 = tested on: SNB-19
SK-MEL-2 = tested on: SK-MEL-2
MCF7 = tested on: MCF7
HCT-116 = tested on: HCT-116
CCRF-CEM = tested on: CCRF-CEM
MDA-MB-231 = tested on: MDA-MB-231
PC-3 = tested on: PC-3
KM12 = tested on: KM12
SF-268 = tested on: SF-268
T47D = tested on: T47D
NCI-H23 = tested on: NCI-H23
786-0 = tested on: 786-0
SR = tested on: SR

Row | SMILES | GI50 (MOLT-4) | GI50 (BT-549) | GI50 (K562) | GI50 (SN12C) | GI50 (A498) | GI50 (NCI-H460) | GI50 (SK-OV-3) | GI50 (SNB-19) | GI50 (SK-MEL-2) | GI50 (MCF7) | GI50 (HCT-116) | GI50 (CCRF-CEM) | GI50 (MDA-MB-231) | GI50 (PC-3) | GI50 (KM12) | GI50 (SF-268) | GI50 (T47D) | GI50 (NCI-H23) | GI50 (786-0) | GI50 (SR)
1 | Cc1c(N2C(=O)CS(=O)(=O)C2c2cccc(Oc3ccccc3)c2)c(=O)n(-c2ccccc2)n1C (stereo unspecified) | 20.5 µM (inactive) | 29.5 µM (inactive) | 24.3 µM (inactive) | 40.5 µM (inactive) | < 0.01 µM (active) | 37.2 µM (inactive) | 61.8 µM (inactive) | > 100 µM (inactive) | 72.9 µM (inactive) | 36.9 µM (inactive) | 26.7 µM (inactive) | 45.9 µM (inactive) | > 100 µM (inactive) | 43.3 µM (inactive) | 19.4 µM (inactive) | 59.3 µM (inactive) | 29 µM (inactive) | > 100 µM (inactive) |  | 
2 | CC(C)CCCC(C)[C@H]1CC[C@H]2[C@@H]3CC[C@H]4C[C@@H](CCC=C(c5cc(Cl)c(O)c(C(=O)OC(C)(C)C)c5)c5cc(Cl)c(O)c(C(=O)OC(C)(C)C)c5)CC[C@]4(C)[C@H]3CC[C@]12C (stereo partly specified) | > 50 µM (inactive) | > 50 µM (inactive) | > 50 µM (inactive) | > 50 µM (inactive) | > 50 µM (inactive) |  | > 50 µM (inactive) | > 50 µM (inactive) | > 50 µM (inactive) | > 50 µM (inactive) | > 50 µM (inactive) | > 50 µM (inactive) | > 50 µM (inactive) | > 50 µM (inactive) | > 50 µM (inactive) | > 50 µM (inactive) | > 50 µM (inactive) | > 50 µM (inactive) | > 50 µM (inactive) | 
3 | CN(C)c1ccc(/C=N/c2ccc(Oc3ccc(Cl)cc3)c(Cl)c2)cc1 | 18.5 µM (inactive) | 16.6 µM (inactive) |  | 21.6 µM (inactive) |  | 19.5 µM (inactive) | 26.8 µM (inactive) | 16.4 µM (inactive) | 14.5 µM (inactive) | 42.7 µM (inactive) | 5.2 µM (inactive) | 10.8 µM (inactive) | 16.5 µM (inactive) | 15.2 µM (inactive) | 17.1 µM (inactive) | 13.7 µM (inactive) | 16.8 µM (inactive) | 19 µM (inactive) |  | 10.9 µM (inactive)
4 | S=c1nc(Nc2ccc(Br)cc2)c2c3c(sc2[nH]1)CN(N1CCc2c(sc4[nH]c(=S)nc(Nc5ccc(Br)cc5)c24)C1)CC3 | 12.8 µM (inactive) | > 50 µM (inactive) | 11.1 µM (inactive) | 28.4 µM (inactive) | 11.3 µM (inactive) | 23.8 µM (inactive) | > 50 µM (inactive) | 22.5 µM (inactive) | 14.9 µM (inactive) | 20.3 µM (inactive) | 12.3 µM (inactive) | 23.9 µM (inactive) | 17.9 µM (inactive) | 38.8 µM (inactive) | 21.6 µM (inactive) | 33.7 µM (inactive) | 8.79 µM (inactive) | 24 µM (inactive) | 8.13 µM (inactive) | 27.5 µM (inactive)
5 | Cc1nc(Nc2nc3ccccc3[nH]2)[nH]c(=O)c1CCO | > 100 µM (inactive) | > 100 µM (inactive) | > 100 µM (inactive) | > 91.6 µM (inactive) | > 100 µM (inactive) | 34.6 µM (inactive) | 38.3 µM (inactive) | > 100 µM (inactive) | 37.2 µM (inactive) | > 100 µM (inactive) | 77.6 µM (inactive) | > 69 µM (inactive) | 27.4 µM (inactive) | > 100 µM (inactive) | > 100 µM (inactive) | > 96.6 µM (inactive) | 7.6 µM (inactive) | 98.6 µM (inactive) | 65.6 µM (inactive) | 30.9 µM (inactive)
6 | COc1ccc(C2=C(Cl)c3cc(OC)c(OC)cc3C2Cl)cc1 (stereo unspecified) | 4.34 µM (inactive) | 3.78 µM (inactive) | 5.24 µM (inactive) | 13.5 µM (inactive) | 13.2 µM (inactive) | 9.71 µM (inactive) | 13.6 µM (inactive) | 18.7 µM (inactive) | 12.1 µM (inactive) | 10.5 µM (inactive) | 14.2 µM (inactive) | 2.84 µM (inactive) | 17.7 µM (inactive) | 12.8 µM (inactive) | 13.6 µM (inactive) | 16 µM (inactive) | 13.3 µM (inactive) | > 37.4 µM (inactive) | 12.2 µM (inactive) | 3.27 µM (inactive)
7 | CC1=NN(C(=O)c2ccc(Cl)cc2)C(=O)C1/N=N/c1ccc(S(=O)(=O)Nc2ncccn2)cc1 (stereo unspecified) | > 100 µM (inactive) | > 100 µM (inactive) | > 100 µM (inactive) | > 100 µM (inactive) |  | > 100 µM (inactive) | > 100 µM (inactive) | > 100 µM (inactive) | > 100 µM (inactive) | > 100 µM (inactive) | > 100 µM (inactive) |  | > 100 µM (inactive) | 0.217 µM (active) | > 100 µM (inactive) | > 100 µM (inactive) | > 100 µM (inactive) | > 100 µM (inactive) | > 100 µM (inactive) | > 100 µM (inactive)
8 | COc1ccc2[nH]c(Cl)c(/C=C3/C(=O)Nc4cc(C)c(OC)cc43)c2c1 | 4.32 µM (inactive) | 3.2 µM (inactive) | 4.39 µM (inactive) | 7.43 µM (inactive) | 5.82 µM (inactive) | 3.36 µM (inactive) | 2.52 µM (inactive) | 8.26 µM (inactive) | 2.4 µM (inactive) | 3.8 µM (inactive) | 4.59 µM (inactive) | 3.43 µM (inactive) | 3.81 µM (inactive) | 3.33 µM (inactive) | 3.35 µM (inactive) | 5.75 µM (inactive) | 5.96 µM (inactive) | 5.11 µM (inactive) | 5.68 µM (inactive) | 3.08 µM (inactive)
